{
  "source": "paper PMC5740082",
  "about": "“Identification of a CARM1 Inhibitor with Potent In Vitro and In Vivo Activity in Preclinical Models of Multiple Myeloma” (Scientific Reports, 2017)",
  "key": {"[1]": {"molecular_target": "T1, CARM1 (Homo sapiens, UniProt Q86X55)", "T1 construct": "FLAG-CARM1 (amino acids 2–585)-His for biochemical studies was expressed in 293 F mammalian cells; made in house; host or cells: 293F mammalian cells", "T1 sequence (Q86X55 2-585 isoform Q86X55-1)": "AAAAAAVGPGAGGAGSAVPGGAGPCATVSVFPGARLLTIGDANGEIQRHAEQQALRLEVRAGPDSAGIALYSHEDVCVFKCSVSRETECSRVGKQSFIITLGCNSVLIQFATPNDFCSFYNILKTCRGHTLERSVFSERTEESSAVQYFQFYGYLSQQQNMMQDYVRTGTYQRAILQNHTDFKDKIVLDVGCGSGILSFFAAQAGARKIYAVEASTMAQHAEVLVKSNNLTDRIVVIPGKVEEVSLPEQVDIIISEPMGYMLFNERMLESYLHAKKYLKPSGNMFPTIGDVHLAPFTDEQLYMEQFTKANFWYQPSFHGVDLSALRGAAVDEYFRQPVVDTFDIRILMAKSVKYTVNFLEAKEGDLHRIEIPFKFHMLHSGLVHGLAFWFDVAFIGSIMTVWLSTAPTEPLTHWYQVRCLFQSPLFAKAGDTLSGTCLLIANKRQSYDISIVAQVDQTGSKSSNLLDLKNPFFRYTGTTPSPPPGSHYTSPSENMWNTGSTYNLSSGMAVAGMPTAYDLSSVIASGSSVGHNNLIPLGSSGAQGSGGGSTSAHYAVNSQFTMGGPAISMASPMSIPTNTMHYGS", "experiment": "CARM1 histone methyltransferase (biochemical) assay", "protocol": "CARM1 activity was measured as previously reported for the histone methyltransferases PRMT1/6/8[65] and PRMT5[58]. Briefly, CARM1 was preincubated with compounds for 30 minutes at room temperature before reactions were initiated. […] The assays were quenched by the addition of 300 μM unlabeled SAM. The quantity of ^3H-labeled peptide produced was measured by Flashplate on a Topcount reader. Further details can be found in the Supplementary Methods.\nHistone methyltransferase assay\nThe compounds were preincubated with CARM1 for 30 minutes at room temperature before the reactions were initiated by the addition of substrates. […]\ncontaining 20 mM bicine, 1 mM tris(2-carbox yethyl)phosphine, 0.005% bovine skin gelatin and 0.002% Tween-20, pH 7.5 and 2% DMSO. The peptide sequence was biotin-aminohexanoate- […]\neKS AP-amide, where RMe is a monomethylated arginine residue (21st\nCentury Biochemicals, Marlboro, MA). After 2 hours, assa ys were quenched b y the addition of 300 μM unlabeled SAM. The reactions were tran sferred to a 384-well Flashplate (Perkin Elmer) and the biotinylated peptides were allowed to bind to the streptavidin surface for at least 1 hour before being washed once with 0.1% Tween 20. The quantit y of 3H-labeled peptide bound to the Flashplate surface was counted on a Topcount reader as counts per minute (cpm). % Inhibition values wer e calculated and IC50 values were fit using the 3 -param eter IC50 equation below:\nYY = BBBBBBBBBBBB + (100 − BBBBBBBBBBBB )HHHHHHHH CCCCCCCCCCHHCCHHCCCCCC where top is fixed at 100 or the maximum inhibition plateau , Y is % inhibition and X is […]\nIC50 vs [peptide] data were fit to the noncom petitive Cheng- Prusoff […]\nThe effect of reaction time on compound potency was determined b y meas uring IC50 values from […]\nto a one phase exponential deca y equation. […]\nactivity was measured under standard conditions after a 30 minute preincubation.\nIC 50 values were d etermi ned and data wer e anal yz ed using the following eq uation: […]"}, "[2]": {"tested_on": "REC-1", "experiment": "Six-day cell proliferation assay (CellTiter-Glo)", "type": "cell-based", "conditions": "Homo sapiens, Rec1, 144 h; REC-1 (B-NHL), 6 days; read-out: Average day 6 gIC50", "protocol": "Six-day cell proliferation assay\nOptimal cell seeding density was determined empirically for each cell lines by examining the gro wth of a wide ran ge o f seedin g densities in a 3 84-well formatto identify conditio ns that permitted maximal and continued proliferation for 6 days. Cells were plat ed in duplicate plates 24 hours before treatment with a 20- point two-fold dilution series of compound or 0.15%\nDMSO. Plates were incubated for 6 da ys at 37°C in 5% CO2. Cells were th en l ysed with CellTiter-Glo (CTG) (Pr omega) and chemiluminescent sign al was detected with an appropriat e microplate reader. In addition, an untreated plate of cells was harvested at the time of compound addition (T0) to quantif y the initial cell densit y. CTG values obtained after 6 days of treatment were expressed as a percent of the T0 value and plotted against compound concentration. […]\nSupplementary Table S 3. […] A p anel […]\nof cell lines was treated with EZM2302fo r 6da ys in a proliferation ass a y. Cell densit y (as assessed b y CellTiter-Gl o) at da y 0 was compared to day 6 to det ermine growth IC 50 values , calculated us i n g a f our parameter dose response equation.\nCell Type According to Cell Type Category Cell L ine Name gIC50 Average day 6 Standard Replicates\nSupplier Modifier gIC50 (nM) Deviation"}, "[3]": {"molecular_target": "T2, rat recombinant kappa-opioid (KOP) receptor (Rattus norvegicus, UniProt P34975)", "T2 construct": "purchased CEREP, Redmond, WA (ExpresSProfile screen)", "T2 sequence (P34975 whole entry)": "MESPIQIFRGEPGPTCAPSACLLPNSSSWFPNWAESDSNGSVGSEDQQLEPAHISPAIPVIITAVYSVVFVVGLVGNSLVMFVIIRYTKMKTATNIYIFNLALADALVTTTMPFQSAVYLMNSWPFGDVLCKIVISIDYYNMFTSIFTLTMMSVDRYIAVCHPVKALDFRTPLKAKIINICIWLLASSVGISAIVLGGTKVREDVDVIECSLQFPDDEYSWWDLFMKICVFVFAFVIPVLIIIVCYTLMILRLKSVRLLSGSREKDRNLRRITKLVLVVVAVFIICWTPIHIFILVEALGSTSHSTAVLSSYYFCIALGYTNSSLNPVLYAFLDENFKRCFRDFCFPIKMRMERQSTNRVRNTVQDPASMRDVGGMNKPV", "experiment": "kappa-opioid (KOP) receptor binding assay", "from_the_text": "[…]. […] […]. […] […]."}, "[4]": {"tested_on": "40 protein kinases, lipid kinases and kinase mutants", "experiment": "KinaseProfiler screen (Millipore)", "type": "biochemical", "conditions": "10 μM"}, "[5]": {"tested_on": "PABP1 and SmB methylation in U266B1 cells", "experiment": "Western blot of cellular methyl marks, U266B1", "conditions": "96 h"}},
  "note": "Where two headings read alike, the source gives them in different places.",
  "data": [
    {"compound": "CNC[C@@H](O)COc1ccc(Cl)c(-c2nc(-c3c(C)noc3C)c(C)c(N3CC4(CCN(C(=O)OC)CC4)C3)n2)c1", "note": "[EZM2302]", "values": [
      {"measurement": "α value (dual inhibitor study with SAH)", "setting": "[1]; varying EZM2302 and SAH", "result": 0.2},
      {"measurement": "α (noncompetitive fit, substrate competition)", "setting": "[1]; varying peptide concentrations", "result": 0.2},
      {"measurement": "IC50", "setting": "[2]", "result": "> 7.33", "unit": "µM"},
      {"measurement": "IC50", "setting": "[3]", "result": 3.3, "unit": "µM"},
      {"measurement": "inhibition at 10 µM", "setting": "[3]; 10 μM", "result": 69, "unit": "%"},
      {"measurement": "inhibition of kinases", "setting": "[4]", "result": "≤ 30", "unit": "%"},
      {"measurement": "IC50", "setting": "[5]; read-out: IC50, PABP1me2a", "result": 22, "unit": "nM"},
      {"measurement": "IC50", "setting": "[5]; read-out: IC50, SmBme0", "result": 20, "unit": "nM"}
    ]}
  ]
}
